In patent US5932242A, “Ether lipid-containing pharmaceutical compositions and therapeutic uses thereof” (The Liposome Company, Inc., priority 1996, dated 1999):

Tests used:
[1] = Monolayer mean molecular area per molecule (MMAM) measurement, Langmuir-Blodgett mini-trough; type: physicochemical; settings: single-lipid monolayer, 23° C., 10 mM HEPES, 150 mM NaCl, pH 7.2, extrapolated to zero surface pressure
Excerpt: A measure of the amount of space occupied by a lipid molecule is the mean area ("MMAM") that a molecule of the lipid occupies in a monolayer formed of that lipid. MMAM values for various lipids can readily be determined by ordinarily skilled artisans given the teachings of this invention, for example, as set forth in Example 1 below. MMAM values can be determined by first forming a lipid monolayer on the surface of an aqueous medium contained within a suitable trough, by the drop-wise addition of a lipid solution to the surface of the aqueous medium. […] Surface pressures for the different surface areas are recorded, and area-vs.-pressure curves compiled. MMAM values are obtained from these curves by extrapolating the steepest portion of the curve to a lipid's surface area at zero pressure.
The mean area occupied by a lipid molecule in a monolayer formed by a combination of cone-shaped and inverted cone-shaped lipids could be calculated according to the equation A0 =X^1 ·A^1 +X^2 ·A^2 (see Ali et al., the contents of which are incorporated herein by reference), wherein "A0 " is the MMAM expected of the lipids in the two component system, X^1 and X^2 are the relative mole percentages of the lipids in the combination, and A^1 and A^2 are the measured MMAM values of the individual lipids. Accordingly, the combination of lipids in a two-component monolayer would be expected to result in a mean molecular area per lipid molecule ("MMAMexpected ") reflective of the relative proportions in which each of the constituent lipids is present in the combination. That is, calculated in accordance with the above equation, the MMAM value expected of the lipids would be additive.
The mean molecular area per molecule of formulations containing the ether lipid ET-18-OCH3 was determined using a Langmuir-Blodgett mini-trough equipped with a dual barrier mechanism and a Wilhelmy balance, all obtained from KSV Instruments (Trumbull, Conn.). ET-18-OCH3 formulations were prepared from lipid powders that were dissolved in a solvent system of hexane:ethanol 9:1. Single lipid solutions and mixtures were made to contain an overall lipid concentration of approximately 1.5 mM which was quantitated precisely by phosphate (Chen et al., 1956) and cholesterol assays (Rudel & Morris, 1973). Monolayers were formed by dropwise addition of sample on to the aqueous surface (10 mM HEPES, 150 mM NaCl buffer, pH 7.2) at the center of the trough. Sample was added until the surface pressure just started to rise above zero, at which time the exact volume of sample added was recorded. After waiting three minutes for solvent evaporation and monolayer stabilization, the surface area of the monolayer was reduced at a rate of 15 cm^2 /min, and surface pressure was recorded. The solution level was maintained 1 mm below the top edge of the trough to avoid leakage; contact was maintained with the barriers (composed of Delrin) due to their hydrophilic nature.
Pressure vs. area curves were compiled from data obtained as described above (see FIGS. 1 and 2), and MMAM values were determined by extrapolating the steepest portion of the curve to the value at zero surface pressure. […] All experiments were done at 23° C. […] MMAMs (A0) were determined for each lipid by extrapolation of the steepest portion of the curves to the value at zero surface pressure; and are as follows: ET-18-OCH3 : 72.8 Å^2; CHOL: 44.8 Å^2; DOPE: 82.3 Å^2; POPC: 82.0 Å^2; and, DOPC: 82.0 Å^2.

[2] = art knowledge; cited from earlier work
[3] = Hemolysis of washed human red blood cells (H50); type: cell-based; settings: human, red blood cells
Procedure: (§1) The hemolytic activity of ET-18-OCH3 /CHOL, DOPE, POPC or DOPC liposomes, prepared as described below in Example 2, have also been examined, as described hereinbelow in Example 3. Results, presented hereinbelow in FIG. 3, are in the form of the ET-18-OCH3 concentration in the various liposomes required to achieve hemolysis of 50% of the red blood cells present in a sample (H50).
(§2) […] All liposomes were extruded, in order to assure uniform size distribution.
(§3) Hemolysis was assessed as previously described (Perkins et al., 1992). Briefly, each sample was serially diluted with buffer solution and 0.3 ml of each diluted solution was mixed with 0.3 ml of washed human red blood cells [4% in PBS (v/v)]. For controls, 0.3 ml of the red blood cell suspension was mixed with either 0.3 ml of buffer solution (negative hemolysis control) or 0.3 ml of distilled water (positive hemolysis control). Samples and standards were placed in a 37° C. incubator and agitated for 20 hours. Tubes were centrifuged at low speed (2000 g) for 10 minutes to pellet RBCs. Two hundred μl of the supernatant was removed and mixed with 1 ml of water. Hemolysis was quantitated by absorbance at 550 nm using a Shimadzu 2101 UV-Vis Scanning Spectrophotometer (Shimadzu Corp., Kyoto, Japan). One hundred percent hemolysis was defined as the maximum amount of hemolysis obtained from free ET-18-OCH3.

human red blood cells = assay: Hemolysis of washed human red blood cells (H50); type: cell-based; settings: concluded from hemolysis of 60 mole % ET-18-OCH3 /cholesterol SUVs
Procedure: as §1, §2, §3

| Compound | MMAM (A0) of individual lipid [1] [Å^2] | packing parameter [2] | HC50 at 20 h [3] [µM] | Ability to form stable liposome structures (human red blood cells) |
| --- | --- | --- | --- | --- |
| CC(C)CCC[C@@H](C)[C@H]1CC[C@H]2[C@@H]3CC=C4C[C@@H](O)CC[C@]4(C)[C@H]3CC[C@]12C [CHOL, cholesterol] | 44.8 | 1.2-1.3 | – | – |
| CCCCCCCC/C=C\CCCCCCCC(=O)OC(COC(=O)CCCCCCCCCCCCCCC)COP(=O)([O-])OCC[N+](C)(C)C (stereo not drawn) [POPC, palmitoyloleoyl phosphatidylcholine] | 82.0 | – | – | – |
| CCCCCCCCCCCCCCCCCCOC[C@H](COP(=O)([O-])OCC[N+](C)(C)C)OC [ET-18-OCH3, 1-O-octadecyl-2-O-methyl-sn-3-phosphorylcholine] | 72.8 | – | 16 | does not form stable liposome structures above a 1:1 stoichiometry |
| CCCCCCCC/C=C\CCCCCCCC(=O)OCC(COP(=O)([O-])OCC[N+](C)(C)C)OC(=O)CCCCCCC/C=C\CCCCCCCC (stereo not drawn) [DOPC, dioleoyl phosphatidylcholine] | 82.0 | – | – | – |
| CCCCCCCC/C=C\CCCCCCCC(=O)OCC(COP(=O)(O)OCCN)OC(=O)CCCCCCC/C=C\CCCCCCCC (stereo not drawn) [DOPE, dioleoyl phosphatidylethanolamine] | 82.3 | 1.2-1.3 | – | – |
